{
  "source": "patent US20130017600A1",
  "about": "“ISOLATION AND/OR PRESERVATION OF DENDRITIC CELLS FOR PROSTATE CANCER IMMUNOTHERAPY” (NORTHWEST BIOTHERAPEUTICS, INC., priority 1995, published 2013)",
  "key": {"[1]": {"system": "T cells (PBMC) obtained from prostate cancer patients", "test": "T cell proliferation assay (3H-TdR incorporation) with PSMA peptide alone", "type": "cell-based, human", "method": "One hundred thousand previously frozen T cells (designated “PBMC”) obtained from a prostate cancer patient were cultured in the presence or absence of 20\nPSMA peptide in complete medium containing 10% heat-inactivated human serum and 1 unit/ml IL2. One μCi/well ^3H-Thymidine was added on day 6 and cultures were harvested 18 hours later. ^3H-TdR incorporation was counted in a liquid scintillation counter. Each experiment was done in 4 replicates.\nOne hundred thousand T cells, i.e. PBMC obtained from HLA-A2(+) or HLA-A2(−) prostate cancer patients were cultured in the presence or absence (i.e. “medium control”) of 20 μg PSM-P2 peptide for five (5) days in a humidified, 37° C., 5% CO2 incubator. On day 6, 1 μCi ^3H-Thymidine was added to each well. After another 24 h incubation, cells were harvested and the ^3H-TdR incorporated was counted in a liquid scintillation counter. Each experiment was done in triplicate. Results are presented in FIG. 10 as average cpm and standard error of the mean."}, "[2]": {"system": "T cells proliferated as a result of the PSMA peptide", "test": "Flow cytometric analysis (CD4/CD8) of T cells proliferated as a result of the PSMA peptide", "type": "cell-based, human", "settings": "expanded 5 days with 2 μM peptide and 1 unit/ml IL2; FIG. 9", "method": "The T cells proliferated as a result of the PSMA peptide were expanded in culture for 5 days, in complete medium containing 2 μM PSMA peptide and 1 unit/ml Il2 for 5 days prior to harvest. One million cells were incubated for 30 minutes on ice with anti-CD4, anti-CD8 antibodies or medium alone, followed by another 30 minute incubation with fluorescein isothiocyanate labelled-2° antibody. Fluorescence-bound was analyzed in a FACScan (Becton Dickinson, San Jose, Calif.) flow cytometer as described above. The percent CD4+ and CD8+ cells were calculated. Results are illustrated in FIG. 9."}, "[3]": {"system": "late stage prostate cancer patients", "test": "Phase 1 clinical trial: T cell proliferation pre- and post-infusion (stimulation ratio)", "type": "in vivo, human", "settings": "7 days after first infusion; all patients of the group; FIG. 11", "method": "A phase 1 clinical trial has been established using five treatment groups of late stage prostate cancer patients. The groups were treated as follows: Group I, received peptide PSM-P1 having amino acid sequence LLHETDSAV (SEQ. ID. NO 1) only at 0.2, 2.0 and 20.0 μg; Group II, peptide PSM-P2 having amino acid sequence ALFDIESKV (SEQ. ID. NO. 2) only at 0.2, 2.0 and 20.0 μg; Group III, 1×10^6 (#3-4) or 5×10^6 (#1, 2) autologous dendritic cells only; Group IV, up to 2×10^7 autologous dendritic cells loaded with PSM-P1 (SEQ. ID. NO. 1); and Group V, up to 2×10^7 autologous DC's loaded with PSM-P2 (SEQ. ID. NO. 2). All treatments were delivered by infusion. Patients were monitored 7 days post-infusion and their immune function was analyzed by assessing T cell proliferation pre- and post-infusion using ^3H-TdR incorporation as described above in Section 9."}, "[4]": {"system": "previously cryopreserved autologous T cells (PBMC) of a prostate cancer patient", "test": "T cell proliferation assay with extended life span (EBV-transformed) dendritic cells", "type": "cell-based, human", "settings": "antigen presented by extended life span DC's; TT 500 ng/ml or LNCaP lysate equivalent of 10^4 cells/ml; FIG. 7"}, "[5]": {"system": "previously frozen T cells (PBMC) of a prostate cancer patient", "test": "T cell proliferation assay with previously cryopreserved autologous dendritic cells and purified PSMA", "type": "cell-based, human", "settings": "previously cryopreserved DC's plus 5 μl/well purified PSMA; vs antigen alone or DC's alone; FIG. 6", "method": "Dendritic cells were isolated from PBMC of a prostate cancer patient as described above in Section 6 and cultured, as described above, in Section 6, for 7 days in the presence of 500 units/ml GM-CSF and IL-4.\nOn day 7, the isolated DC's were harvested and cryopreserved using 90% fetal calf serum and 10% dimethylsulfoxide. The cryopreserved DC's were stored frozen for a period of time, thawed in a 37° C. water bath and transferred to a 15 ml polypropylene tube and centrifuged at 1200 rpm for 5 min. The thawed DC's were then resuspended in medium containing 10% heat-inactivated human serum and counted.\nOne hundred thousand previously frozen T cells obtained from peripheral blood of the same prostate cancer patient (PBMC) were cultured in the presence or absence of 10^4 DC's together with 5 μl/well purified PSMA (see Section 6.1.4 above) in a total volume of 200 μl medium containing 10% heat-inactivated human serum and 1 unit/ml IL-2. One μCi/well ^3H-Thymidine was added on day 6 and cultures were harvested 18 hours later. ^3H-TdR incorporation was counted in a liquid scintillation counter. Each experiment was done in 4 replicates. The average cpm and standard deviation are shown in the graph."}},
  "data": [
    {"substance": "ALFDIESKV [PSM-P2, peptide corresponding to amino acid residues 711-719 of PSMA]", "values": [
      {"measurement": "T cell proliferation (3H-TdR incorporation), HLA-A2(−) T cells", "setting": "[1]; 20 μg peptide, 5 days, FIG. 10", "value": "less dramatic enhanced T cell proliferation"},
      {"measurement": "T cell proliferation (3H-TdR incorporation), HLA-A2(+) T cells", "setting": "[1]; 20 μg peptide, 5 days, vs medium control, FIG. 10", "value": "greatly enhanced cell proliferation"}
    ]},
    {"substance": "LLHETDSAV [PSM-P1, peptide corresponding to amino acid residues 4-12 of PSMA]", "values": [
      {"measurement": "CTL's share of the T cells stimulated by the peptide", "setting": "[2]", "value": "about 41%"},
      {"measurement": "increase in T cell proliferation post- vs pre-infusion", "setting": "[3]", "value": "did not demonstrate any increase in T cell proliferation"},
      {"measurement": "T cell proliferation (3H-TdR incorporation)", "setting": "[1]; PBMC of a prostate cancer patient with peptide vs absence of peptide, FIG. 8", "value": "greatly enhanced T cell proliferation"}
    ]},
    {"substance": "PSMA: purified prostate specific membrane antigen, immunoprecipitated from human semen with monoclonal antibody 7E11-C5", "values": [
      {"measurement": "3HTdR incorporation (T cell proliferation)", "setting": "[4]", "value": "significantly increased"},
      {"measurement": "3HTdR incorporation (T cell proliferation)", "setting": "[5]", "value": "highly significant increase"}
    ]}
  ]
}
